Measured values taken from patent publication US9353104B2, “Substituted pyridizinone derivatives as PDE10 inhibitors” (priority 2013, dated 2016).

Target: human PDE10A2 (Homo sapiens (Human), UniProt Q9Y233)
Assay: PDE10 fluorescence polarization (IMAP FP) inhibition assay
Assay type: biochemical
Settings: human PDE10A2 lysate, FAM-labeled cAMP 50 nM, room temperature; read-out: PDE10A Ki
Method in brief: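 Cytoplasmic lysate of AD293 cells transiently expressing human PDE10A2, diluted for ~20% conversion of 50 nM FAM-cAMP, in 10 mM Tris pH 7.2, 10 mM MgCl2, 1 mM DTT, 0.01% Tween-20. Reaction 30 min at room temperature, read by IMAP fluorescence polarization; 10-point 3-fold titrations, 1% DMSO as 0%, reference PDE10 inhibitor at 5,000× Ki as 100%.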

Sequence of human PDE10A2 (Q9Y233 267-1055): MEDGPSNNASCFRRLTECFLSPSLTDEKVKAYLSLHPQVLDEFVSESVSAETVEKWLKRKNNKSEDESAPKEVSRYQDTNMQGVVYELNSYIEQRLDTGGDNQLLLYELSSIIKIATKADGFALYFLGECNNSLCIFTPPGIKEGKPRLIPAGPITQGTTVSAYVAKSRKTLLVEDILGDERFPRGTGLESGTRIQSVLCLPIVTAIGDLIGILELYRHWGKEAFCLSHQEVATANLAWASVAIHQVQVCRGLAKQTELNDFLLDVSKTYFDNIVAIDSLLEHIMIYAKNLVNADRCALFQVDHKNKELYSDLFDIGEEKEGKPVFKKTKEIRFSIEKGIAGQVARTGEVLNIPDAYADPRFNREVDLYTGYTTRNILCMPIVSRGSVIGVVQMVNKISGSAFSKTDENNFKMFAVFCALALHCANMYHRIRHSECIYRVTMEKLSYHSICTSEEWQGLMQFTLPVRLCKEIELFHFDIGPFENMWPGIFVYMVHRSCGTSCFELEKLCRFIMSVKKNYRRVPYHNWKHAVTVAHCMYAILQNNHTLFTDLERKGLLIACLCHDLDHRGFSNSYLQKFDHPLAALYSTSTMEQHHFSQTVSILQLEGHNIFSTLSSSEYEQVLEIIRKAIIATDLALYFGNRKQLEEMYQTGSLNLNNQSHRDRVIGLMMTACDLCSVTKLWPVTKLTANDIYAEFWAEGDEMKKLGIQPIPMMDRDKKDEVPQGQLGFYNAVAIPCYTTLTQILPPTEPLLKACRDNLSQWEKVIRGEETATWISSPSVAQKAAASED

Compound | Ki [nM]
Cc1cccc([C@H]2C[C@@H]2COc2cc(NCc3cc(C)nn3C)c(=O)n(C)n2)n1 [Example 116, 4-((1,3-dimethyl-1H-pyrazol-5-yl)methylamino)-2-methyl-6-(((1S,2S)-2-(6-methylpyridin-2-yl)cyclopropyl)methoxy) pyridazin-3(2H)-one] | 0.005
Cc1ccc(CNc2cc(OC[C@H]3C[C@@H]3c3ccc(C)cn3)nn(C)c2=O)nc1 [Example 9, 2-methyl-6-(((1S,2S)-2-(5-methylpyridin-2-yl)cyclopropyl)methoxy)-4-((5-methylpyridin-2-yl)methylamino)pyridazin-3(2H)-one] | 0.051
Cc1cccc([C@H]2C[C@@H]2COc2cc(NCc3cnn(C)c3)c(=O)n(C)n2)n1 [Example 117, 2-methyl-4-((1-methyl-1H-pyrazol-4-yl)methyl-amino)-6-(((1S,2S)-2-(6-methylpyridin-2-yl)cyclopropyl)methoxy) pyridazin-3(2H)-one] | 0.089
Cc1ccc(CNc2cc(OC[C@H]3C[C@@H]3c3ccccn3)nn(C)c2=O)c(C)n1 [Example 55, 4-(((2,6-dimethylpyridin-3-yl)methyl)amino)-2-methyl-6-(((1S,2S)-2-(pyridin-2-yl)cyclopropyl-)-methoxy)pyridazin-3(2H)-one] | 0.021
COc1ccc([C@H]2C[C@@H]2COc2cc(NCc3cncnc3)c(=O)n(C)n2)nc1 [Example 63, 6-(((1S,2S)-2-(5-methoxy-pyridin-2-yl)cyclopropyl-)-methoxy)-2-methyl-4-((pyrimidin-5-ylmethyl)-amino)pyridazin-3(2H)one] | 1.7
COc1ccc([C@H]2C[C@@H]2COc2cc(NC(=O)c3cnn(C)c3Cl)c(=O)n(C)n2)nc1 [Example 95, 5-chloro-N-(6-(((1S,2S)-2-(5-methoxypyridin-2-yl)-cyclopropyl)methoxy)-2-methyl-3-oxo-2,3-dihydro-pyridazin-4-yl)-1-methyl-1Hpyrazole-4carboxamide] | 75
CCc1cc(CNc2cc(OC[C@H]3C[C@@H]3c3ccc(C)cn3)nn(C)c2=O)n(C)n1 [Example 138, 4-((3-ethyl-1-methyl-1H-pyrazol-5-yl)methylamino)-2-methyl-6-(((1S,2S)-2-(5-methylpyridin-2-yl)cyclopropyl)methoxy) pyridazin-3(2H)-one] | 0.027
Cc1cccc([C@H]2C[C@@H]2COc2cc(NCc3cccnc3)c(=O)n(C)n2)n1 [Example 120, 2-methyl-6-(((1S,2S)-2-(6-methylpyridin-2-yl)cyclo-propyl)methoxy)-4-(pyridin-3-ylmethylamino-)pyridazin-3(2H)-one] | 1.3
CCc1cc(CNc2cc(OC[C@H]3C[C@@H]3c3ccc(OC)cn3)nn(C)c2=O)n(C)n1 [Example 137, 4-((3-ethyl-1-methyl-1H-pyrazol-5-yl)methylamino)-6-(((1S,2S)-2-(5-methoxypyridin-2-yl)cyclopropyl)methoxy)-2-methylpyridazin-3(2H)-one] | 0.058
COc1ccc([C@H]2C[C@@H]2COc2cc(NCc3cnn(C)c3Cl)c(=O)n(C)n2)nc1 [Example 96, 4-(((5-chloro-1-methyl-1H-pyrazol-4-yl)methyl)-amino)-6-(((1S,2S)-2-(5-methoxypyridin-2-yl)-cyclopropyl)methoxy)-2-methylpyridazin-3(2H)one] | 1.27
Cc1ccc([C@H]2C[C@@H]2COc2cc(NCc3nc(C)cs3)c(=O)n(C)n2)nc1 [Example 12, 2-methyl-6-(((1S,2S)-2-(5-methylpyridin-2-yl)cyclo-propyl)methoxy)-4-((4-methylthiazol-2-yl)methyl-amino)pyridazin-3(2H)one] | 9.89
COc1ccc([C@H]2C[C@@H]2COc2cc(NCc3c(C)nn(C)c3Cl)c(=O)n(C)n2)nc1 [Example 39, 4-((5-chloro-1,3-dimethyl-1H-pyrazol-4-yl)methylamino)-6-(((1S,2S)-2-(5-methoxypyridin-2-yl)cyclopropyl)methoxy)-2-methylpyridazin-3(2H)-one] | 1.58
Cc1ccc([C@H]2C[C@@H]2COc2cc(NCc3c(Cl)c(C)nn3C)c(=O)n(C)n2)nc1 [Example 35, 4-((4-chloro-1,3-dimethyl-1H-pyrazol-5-yl)methylamino)-2-methyl-6-(((1S,2S)-2-(5-methylpyridin-2-yl)cyclopropyl)methoxy)-pyridazin-3(2H)-one] | 0.476
COc1ccc([C@H]2C[C@@H]2COc2cc(NCc3cc(C)on3)c(=O)n(C)n2)nc1 [Example 87, 6-(((1S,2S)-2-(5-methoxypyridin-2-yl)cyclopropyl)methoxy)-2-methyl-4-(((5-methylisoxazol-3-yl)methyl)amino)pyridazin-3(2H)-one] | 0.01
COc1ccc([C@H]2C[C@@H]2COc2cc(NCc3nc(C)nn3C)c(=O)n(C)n2)nc1 [Example 88, 4-(((1,3-dimethyl-1H-1,2,4-triazol-5-yl)methyl)amino)-6-(((1S,2S)-2-(5-methoxypyridin-2-yl)cyclopropyl)methoxy)-2-methylpyridazin-3(2H)-one] | 2.8
Cc1ccc([C@H]2C[C@@H]2COc2cc(NCc3nc(C)c(C)s3)c(=O)n(C)n2)nc1 [Example 127, 4-((4,5-dimethylthiazol-2-yl)methylamino)-2-methyl-6-(((1S,2S)-2-(5-methyl-pyridin-2-yl)cyclopropyl- )methoxy)pyridazin-3(2H)-one] | 0.045
Cc1ccc([C@H]2C[C@@H]2COc2cc(NCc3ccc(C)nc3)c(=O)n(C)n2)nc1 [Example 11, 2-methyl-6-(((1S,2S)-2-(5-methylpyridin-2-yl)cyclopropyl)methoxy)-4-((6-methylpyridin-3-yl)methylamino)pyridazin-3(2H)-one] | 0.121
6-(((1S,2S)-2-(5- methoxypyridin-2- yl)cyclopropyl)methoxy)- 2-methyl-4-(((2-methyl- thiazol-4- yl)methyl)amino-)- pyridazin-3(2H)-one [Example 49] | 16.6
Cc1ncc(CNc2cc(OC[C@H]3C[C@@H]3c3ccc(F)cn3)nn(C)c2=O)s1 [Example 22, 6-(((1S,2S)-2-(5-fluoropyridin-2-yl)cyclopropyl)methoxy)-2-methyl-4-((2-methylthiazol-5-yl)methylamino)pyridazin-3(2H)-one] | 0.175
COc1ccc([C@H]2C[C@@H]2COc2cc(NCc3ccccn3)c(=O)n(C)n2)nc1 [Example 134, 6-(((1S,2S)-2-(5-methoxy-pyridin-2-yl)-cyclopropyl-)methoxy)-2-methyl-4-(pyridin-2-yl-methyl-amino)pyridazin-3(2H)one] | 0.706
COc1ccc(CNc2cc(OC[C@H]3C[C@@H]3c3ccn(C)n3)nn(C)c2=O)cc1 [Example 17, 4-(4-methoxybenzylamino)-2-methyl-6-(((1S,2S)-2-(1-methyl-1H-pyrazol-3-yl)cyclopropyl)methoxy)-pyridazin-3(2H)-one] | 0.502
Cc1ccc(CNc2cc(OC[C@H]3C[C@@H]3c3ccc4c(n3)CCC4)nn(C)c2=O)c(C)n1 [Example 56, 6-(((1S,2S)-2-(6,7-dihydro-5H-cyclopenta-[b]pyridin-2-yl)cyclo-propyl)methoxy)-4-(((2,6-dimethylpyridin-3-yl)-methyl)amino)-2-methyl-pyridazin-3(2H)-one] | 0.002
COc1ccc([C@H]2C[C@@H]2COc2cc(NC(=O)c3cc(C)nn3C)c(=O)n(C)n2)nc1 [Example 101, N-(6-(((1S,2S)-2-(5-methoxypyridin-2-yl)-cyclopropyl)methoxy)-2-methyl-3-oxo-2,3-dihydropyridazin-4-yl)-1,3-dimethyl-1H-pyrazole-5-carboxamide] | 75
CN(C)c1c(CNc2cc(OC[C@H]3C[C@@H]3c3ccn(C)n3)nn(C)c2=O)cnn1C [Example 82, 4-(((5-(dimethylamino)-1-methyl-1H-pyrazol-4-yl)methyl)amino)-2-methyl-6-(((1S,2S)-2-(1-methyl-1H-pyrazol-3-yl)cyclopropyl)methoxy)-pyridazin-3(2H)-one] | 75
COc1ccc([C@H]2C[C@@H]2COc2cc(NCc3ccc(C)nc3C)c(=O)n(C)n2)nc1 [Example 50, 4-(((2,6-dimethylpyridin-3-yl)methyl)amino)-6-(((1S,2S)-2-(5-methoxypyridin-2-yl)cyclopropyl)methoxy)-2-methylpyridazin-3(2H)-one] | 0.003
COc1ccc([C@H]2C[C@@H]2COc2nn(C)c(=O)c(NCc3nnc(C)s3)c2Cl)nc1 [Example 141, 5-chloro-6-(((1S,2S)-2-(5-methoxypyridin-2-yl)cyclopropyl)methoxy)-2-methyl-4-((5-methyl-1,3,4-thiadiazol-2-yl)methylamino)pyridazin-3(2H)-one] | 0.004
